Experimental data as given in patent publication US20250241890A1, “1,4-DIUREAS AND 1,4-DITHIOUREAS AND USES THEREOF” (Purdue Research Foundation, priority 2024, published 2025).
“Also recorded” adds a separate entry of the source.

Legend:
Format in all cases: biochemical
[1] = target: T1, α-synuclein (α-syn) (Homo sapiens, UniProt P37840); assay: Thioflavin T (ThT) fluorescence assay of α-syn fibril formation; conditions: α-syn 2 μM final concentration, compounds at 100 μM, average of three replicates with SEM; read-out: % ThT intensity (100 μM), maximum ThT intensity in percentage
T1 construct: purchased rPeptide (Watkinsville, GA)
Protocol: Chemical and peptide source. Dimethylsulfoxide (DMSO) and thioflavin-T (ThT) were purchased from Alfa Aesar (Ward Hill, MA). Recombinant α-synuclein (α-syn) was procured from rPeptide (WatKinsville, GA). The recombinant p-tau isoform 1N4R was prepared as published previously (Fortin et al. 2021, Sui et al. 2015, Liu et al. 2020). Concerning the preparation of tau 0N4R, a bacterial expression plasmid consisting of the vector pET30a carrying a cDNA encoding the human Tau 0N4R isoform was a kind gift of Dr. Benjamin Wolozin (Boston University). E. coli stock (Rosetta BL21 E. coli (CamR) containing pET30a [0N4R tau wt] (KanR)) was grown in LB medium supplemented with kanamycin (50 μg/mL) and chloramphenicol (50 μg/mL). Protein over-expression was induced by the addition of 1 mM IPTG for ˜18 hours at 37° C., and cells were pelleted by centrifugation at 6,000 g for 15 minutes at 4° C. The cells were resuspended in lysis buffer (10 mM Hepes, pH 7.4, 50 mM NaCl, 1 mM MgCl2, 1 mM PMSF, 1× PIC, and 0.5 mM DTT) and lysed by sonication at 30 seconds “On” and 1 minute “Off” at ˜30-45% power for ˜3-5 minutes. Lysate was centrifuged at 10,000 rpm for 10 minutes at 4° C., and supernatant was transferred with 7.8 ml (total) of 3M NaCl. The lysate was incubated for 10 minutes in 80° C. water bath, then cooled for 10 minutes in an ice bath. The lysate was centrifuged at 10,000 rpm at 4° C. for 10 minutes, and the supernatant was transferred to a new tube. The supernatant was dialyzed overnight against cation exchange buffer (50 mM MES, […], 1 mM DTT, pH 6.0). The dialysate was loaded onto a HiPrep SP HP column, and proteins were eluted with a linear gradient ranging from 50 mM to 1 M NaCl. General Characterizations. ^1H and ^13C {1H} NMR spectra were recorded using a 500 MHz Bruker instrument working at a frequency of 500 MHz for ^1H and at 126 MHz for ^13C. Chemical shifts are reported in ppm using residual solvent resonances as internal reference (δ 2.50 and δ 39.51 for ^1H and ^13C in DMSO-d6, respectively). ^1H NMR data are reported as follows. b=broad, s=singlet, d=doublet, t=triplet, q=quartet, and m=multiplet. Coupling constants are given in hertz. The purity of all compounds and synthetic intermediates was judged to be 95% or better based on ^1H NMR. IR measurements were performed in a Nicolet FTIR as thin films in the Purdue Drug Discovery facility. High-resolution mass spectrometry analyses were conducted at the MSU Mass Spectrometry facility. Thioflavin fluorescence assays. […] The recombinant α-syn obtained from rPeptide has been validated with proper quality control to confirm the monomeric state of the protein. Kinetics of fibril formation have been performed using ThT as published previously.^6, 12, 13, 24 The fluorescence emission experiments were performed with the excitation and emission wavelengths set at 440 and 485 nm, respectively, with a Synergy HT multi-mode microplate reader (BioTek, Winooski, VT). Samples were measured in three replicates. Experiments were repeated three times using different α-syn stock solutions. For each time point, arbitrary units of fluorescence were calculated from the mean values normalized against the maximum value. The percentage of fluorescence intensity at the plateau phase in Table 1 was expressed as mean #SEM. Concerning the dose response curve depicted in FIG. 2, the data were plotted using GraphPad Prism. Photo-induced Cross-linking of Unmodified Proteins (PICUP) Assay. To induce oligomerization by cross-linking, α-syn (from Rpeptide, LLC) was diluted in 10 mM phosphate buffer (pH 7.4) to reach a final concentration of 50 μM. Different compounds were added to the protein solution at a final concentration of 50 μM, resulting in a molar ratio of 1:1. PICUP assays were performed with the following controls: samples without light exposition, without Ru(bpy) or ammonium persulfate, and without compound (i.e., 0.125% DMSO). […]

[2] = target: T1, α-synuclein (α-syn); assay: PICUP assay of α-syn oligomer formation; conditions: α-syn 60 μM, compound 50 μM (~molar ratio 1:1)
Protocol: Chemical and peptide source. Dimethylsulfoxide (DMSO) and thioflavin-T (ThT) were purchased from Alfa Aesar (Ward Hill, MA). Recombinant α-synuclein (α-syn) was procured from rPeptide (WatKinsville, GA). The recombinant p-tau isoform 1N4R was prepared as published previously (Fortin et al. 2021, Sui et al. 2015, Liu et al. 2020). Concerning the preparation of tau 0N4R, a bacterial expression plasmid consisting of the vector pET30a carrying a cDNA encoding the human Tau 0N4R isoform was a kind gift of Dr. Benjamin Wolozin (Boston University). E. coli stock (Rosetta BL21 E. coli (CamR) containing pET30a [0N4R tau wt] (KanR)) was grown in LB medium supplemented with kanamycin (50 μg/mL) and chloramphenicol (50 μg/mL). Protein over-expression was induced by the addition of 1 mM IPTG for ˜18 hours at 37° C., and cells were pelleted by centrifugation at 6,000 g for 15 minutes at 4° C. The cells were resuspended in lysis buffer (10 mM Hepes, pH 7.4, 50 mM NaCl, 1 mM MgCl2, 1 mM PMSF, 1× PIC, and 0.5 mM DTT) and lysed by sonication at 30 seconds “On” and 1 minute “Off” at ˜30-45% power for ˜3-5 minutes. Lysate was centrifuged at 10,000 rpm for 10 minutes at 4° C., and supernatant was transferred with 7.8 ml (total) of 3M NaCl. The lysate was incubated for 10 minutes in 80° C. water bath, then cooled for 10 minutes in an ice bath. The lysate was centrifuged at 10,000 rpm at 4° C. for 10 minutes, and the supernatant was transferred to a new tube. The supernatant was dialyzed overnight against cation exchange buffer (50 mM MES, […], 1 mM DTT, pH 6.0). The dialysate was loaded onto a HiPrep SP HP column, and proteins were eluted with a linear gradient ranging from 50 mM to 1 M NaCl. General Characterizations. ^1H and ^13C {1H} NMR spectra were recorded using a 500 MHz Bruker instrument working at a frequency of 500 MHz for ^1H and at 126 MHz for ^13C. Chemical shifts are reported in ppm using residual solvent resonances as internal reference (δ 2.50 and δ 39.51 for ^1H and ^13C in DMSO-d6, respectively). ^1H NMR data are reported as follows. b=broad, s=singlet, d=doublet, t=triplet, q=quartet, and m=multiplet. Coupling constants are given in hertz. The purity of all compounds and synthetic intermediates was judged to be 95% or better based on ^1H NMR. IR measurements were performed in a Nicolet FTIR as thin films in the Purdue Drug Discovery facility. High-resolution mass spectrometry analyses were conducted at the MSU Mass Spectrometry facility. Thioflavin fluorescence assays. Thioflavin fluorescence assays were used to monitor fibril formation of commercial recombinant α-syn at a final concentration of 2 μM and treated with control DMSO and different compounds. The recombinant α-syn obtained from rPeptide has been validated with proper quality control to confirm the monomeric state of the protein. Kinetics of fibril formation have been performed using ThT as published previously.^6, 12, 13, 24 The fluorescence emission experiments were performed with the excitation and emission wavelengths set at 440 and 485 nm, respectively, with a Synergy HT multi-mode microplate reader (BioTek, Winooski, VT). Samples were measured in three replicates. Experiments were repeated three times using different α-syn stock solutions. For each time point, arbitrary units of fluorescence were calculated from the mean values normalized against the maximum value. The percentage of fluorescence intensity at the plateau phase in Table 1 was expressed as mean #SEM. Concerning the dose response curve depicted in FIG. 2, the data were plotted using GraphPad Prism. Photo-induced Cross-linking of Unmodified Proteins (PICUP) Assay. […] Different compounds were added to the protein solution at a final concentration of 50 μM, resulting in a molar ratio of 1:1. PICUP assays were performed with the following controls: samples without light exposition, without Ru(bpy) or ammonium persulfate, and without compound (i.e., 0.125% DMSO). […]

[3] = target: T2, tau isoform 0N4R (Homo sapiens, UniProt P10636); assay: PICUP assay of tau 0N4R oligomer formation; conditions: tau 10 μM, compound 50 μM (molar ratio 1:5)
T2 construct: made in house; host or cells: Rosetta BL21 E. coli
T2 sequence (P10636 1-383 isoform P10636-6): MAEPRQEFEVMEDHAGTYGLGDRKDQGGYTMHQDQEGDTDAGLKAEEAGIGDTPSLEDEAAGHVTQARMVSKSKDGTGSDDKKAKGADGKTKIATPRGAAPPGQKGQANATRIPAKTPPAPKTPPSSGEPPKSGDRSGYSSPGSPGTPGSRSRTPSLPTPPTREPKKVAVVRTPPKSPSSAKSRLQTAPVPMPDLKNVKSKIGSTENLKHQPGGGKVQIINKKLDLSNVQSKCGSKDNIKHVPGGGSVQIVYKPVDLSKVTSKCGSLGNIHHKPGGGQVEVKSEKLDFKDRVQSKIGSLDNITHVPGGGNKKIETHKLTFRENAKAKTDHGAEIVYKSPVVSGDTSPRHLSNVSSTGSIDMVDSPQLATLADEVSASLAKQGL
Protocol: FIG. 5. […] Compounds 1, 2, and 8 were selected for their α-syn anti-oligomerization activity. Compound 7 was used as di-urea counterpart of compound 8, as compound 1 is the di-urea counterpart of compound 2, a dithiourea derivative. Tau (10 μM) was cross-linked (PICUP assay) with different concentrations of the di-substituted aminoindolyl derivatives at 50 μM (molar ratio 1:5).
Chemical and peptide source. Dimethylsulfoxide (DMSO) and thioflavin-T (ThT) were purchased from Alfa Aesar (Ward Hill, MA). Recombinant α-synuclein (α-syn) was procured from rPeptide (WatKinsville, GA). The recombinant p-tau isoform 1N4R was prepared as published previously (Fortin et al. 2021, Sui et al. 2015, Liu et al. 2020). Concerning the preparation of tau 0N4R, a bacterial expression plasmid consisting of the vector pET30a carrying a cDNA encoding the human Tau 0N4R isoform was a kind gift of Dr. Benjamin Wolozin (Boston University). E. coli stock (Rosetta BL21 E. coli (CamR) containing pET30a [0N4R tau wt] (KanR)) was grown in LB medium supplemented with kanamycin (50 μg/mL) and chloramphenicol (50 μg/mL). […] General Characterizations. ^1H and ^13C {1H} NMR spectra were recorded using a 500 MHz Bruker instrument working at a frequency of 500 MHz for ^1H and at 126 MHz for ^13C. […] Thioflavin fluorescence assays. Thioflavin fluorescence assays were used to monitor fibril formation of commercial recombinant α-syn at a final concentration of 2 μM and treated with control DMSO and different compounds. […] Kinetics of fibril formation have been performed using ThT as published previously.^6, 12, 13, 24 The fluorescence emission experiments were performed with the excitation and emission wavelengths set at 440 and 485 nm, respectively, with a Synergy HT multi-mode microplate reader (BioTek, Winooski, VT). Samples were measured in three replicates. […] For each time point, arbitrary units of fluorescence were calculated from the mean values normalized against the maximum value. The percentage of fluorescence intensity at the plateau phase in Table 1 was expressed as mean #SEM. […]

Row | remaining activity at 100 µM [1] [%] | Compound | effect on α-syn oligomer formation (high molecular weight bands) by PICUP [2] | effect on tau 0N4R oligomer formation by PICUP [3]
1 | 46.2 | S=C(Nc1ccc(NC(=S)Nc2ccc3[nH]ccc3c2)cc1)Nc1ccc2[nH]ccc2c1 [Compound 4, 3-(1H-indol-5-yl)-1-(4-{[(1H-indol-5-yl)carbamothioyl]amino}phenyl)thiourea] | mediocre; also recorded: reduced slightly | 
2 | 58.7 | O=C(Nc1ccc(NC(=O)Nc2ccc3cc[nH]c3c2)cc1)Nc1ccc2cc[nH]c2c1 [Compound 5, 3-(1H-indol-6-yl)-1-(4-{[(1H-indol-6-yl)carbamoyl]amino}phenyl)urea] | mediocre; also recorded: reduced slightly | 
3 | 57 | O=C(Nc1ccc(NC(=O)Nc2ccc3[nH]ccc3c2)cc1)Nc1ccc2[nH]ccc2c1 [Compound 3, 3-(1H-indol-5-yl)-1-(4-{[(1H-indol-5-yl)carbamoyl]amino}phenyl)urea] | mediocre; also recorded: reduced slightly | 
4 | 52.4 | O=C(Nc1ccc(NC(=O)Nc2cccc3cc[nH]c23)cc1)Nc1cccc2cc[nH]c12 [Compound 7, 3-(1H-indol-7-yl)-1-(4-{[(1H-indol-7-yl)carbamoyl]amino}phenyl)urea] |  | None of these compounds were able to reduce the tau 0N4R oligomer formation
